This note sets out measurements from patent US11654121B1 (priority 2022, dated 2023).

The subject of data set [1] is SARS-CoV-2 virus [B.1.351]. The data set is classed as in vivo, mice. To be noted: Hypericin 20 mg/kg alone, pre-treatment from two days prior to infection; day 4 post-infection.
Data set [2] relates to SARS-CoV-2. The data set is described as follows: CellTiter-Glo host cell viability assay of SARS-CoV-2-infected Vero E6 cells. The following applies: for host cell viability: hypericin 0 μM. The data set is classed as cell-based. As to the method:
Vero E6 cells were seeded at 25,000 cells/well in 96-well plates and SARS-CoV-2 was added into the wells at a MOI of 0.01. After 1 hour, hypericin (Cayman Chemical, ≥95% purity) was added into the wells at final concentrations of 1.5625-100 μM or the vehicle only control (DMSO), followed by the addition of remdesivir (Novation Chemicals, 98% purity) at final concentrations of 0.3125-5 μM or the vehicle only control (DMSO), and incubated at 37° C.
After 72 hours of incubation, host cell viability was assessed using CellTiter-Glo® Luminescent Cell Viability Assay (Promega) according to the manufacturer's instructions. Results were normalized to the highest dose of remdesivir alone (5 μM) and are summarized below in Table 1.

As a reminder, the viability is a read-out of living cells in per cent, often relative to untreated cells. As for `Cc1cc(O)c2c(=O)c3c(O)cc(O)c4c5c(O)cc(O)c6c(=O)c7c(O)cc(C)c8c1c2c(c34)c(c78)c65` [Hypericin], in data set [1], the “mice in which all infectious titers were eliminated” value was 5 out of 7. This molecule gave a viability at 1.563 µM in data set [2] (Severe acute respiratory syndrome coronavirus 2, Vero C1008, hypericin 1.563 μM, remdesivir 0 μM, 72 h, normalized to remdesivir 5 μM alone) of 14.6%. In data set [2] (Severe acute respiratory syndrome coronavirus 2, Vero C1008, hypericin 3.125 μM, remdesivir 0 μM, 72 h, normalized to remdesivir 5 μM alone), the viability at 3.125 µM was found to be 12.9%. The molecule further came in with a viability at 6.25 µM in data set [2] (Severe acute respiratory syndrome coronavirus 2, Vero C1008, hypericin 6.25 μM, remdesivir 0 μM, 72 h, normalized to remdesivir 5 μM alone) of 12.8%. Besides, the viability at 12.5 µM in data set [2] (Severe acute respiratory syndrome coronavirus 2, Vero C1008, hypericin 12.5 μM, remdesivir 0 μM, 72 h, normalized to remdesivir 5 μM alone) came to 20.4%. Further, the viability at 25 µM in data set [2] (Severe acute respiratory syndrome coronavirus 2, Vero C1008, hypericin 25 μM, remdesivir 0 μM, 72 h, normalized to remdesivir 5 μM alone) is 62%. Further, the viability at 50 µM in data set [2] (Severe acute respiratory syndrome coronavirus 2, Vero C1008, hypericin 50 μM, remdesivir 0 μM, 72 h, normalized to remdesivir 5 μM alone) was 62.6%; in data set [2] (Severe acute respiratory syndrome coronavirus 2, Vero C1008, hypericin alone (12.5-100 μM), up to, at 50 μM) it was at most 62%. For the same molecule, the viability at 100 µM in data set [2] (Severe acute respiratory syndrome coronavirus 2, Vero C1008, hypericin 100 μM, remdesivir 0 μM, 72 h, normalized to remdesivir 5 μM alone) was found to be 38%. Moreover, the “effect on host cell viability in words” value in data set [2] (hypericin (25-50 μM) alone) is “modest improvements in host cell viability”.
On to `CCC(CC)COC(=O)[C@H](C)N[P@](=O)(OC[C@H]1O[C@@](C#N)(c2ccc3c(N)ncnn23)[C@H](O)[C@@H]1O)Oc1ccccc1` [Remdesivir, remdesivir, reference compound], for which the host cell viability in data set [2] (remdesivir 0.3125 μM, 72 h, normalized to remdesivir 5 μM alone) is given as 19.8%; in data set [2] (remdesivir 0.625 μM, 72 h, normalized to remdesivir 5 μM alone), 21.9%; in data set [2] (remdesivir 1.25 μM, 72 h, normalized to remdesivir 5 μM alone), 25.2%; in data set [2] (remdesivir 2.5 μM, 72 h, normalized to remdesivir 5 μM alone) it was 38.1%.
